# Patent US11584710B2, “Compounds for treating infections” (HORITZONTS TECNOLOGICS HUNGARY KORLÁTOLT FELELOSSÉGU …, priority 2017, dated 2023)
# System: C. lusitaniae
# Assay: Antifungal disk diffusion susceptibility test (CLSI M44)
# Format: cell-based
# Details: Clavispora lusitaniae; C. lusitaniae; 150 μg/disc
# Method: (§1) Filamentous fungi and yeasts strains, from clinical origin, were supplied by Microbiology Service from The Princess Hospital, Madrid. They are detailed in Table IX.
# (§2) Filamentous fungi and yeast cells suspensions in distilled water was prepared from a culture of 24-48 h, depending on species, in Sabouraud agar. Each suspension was adjusted to a fixed size inoculum of 1-5×10^8 CFU/ml with a spectrophotometer (Ferraro, MJ National Committee for Clinical Laboratory Standards. 2000).
# (§3) Antifungal susceptibility tests were developed following the standardized methodology detailed in document CLSI: M44-4: Method for Antifungal Disk diffusion susceptibility testing of yeasts consisting of disk diffusion on agar Muller-Hinton (supplemented with 2% glucose).
row,SMILES,zone of inhibition at 150 µg/disc [mm]
1,Cc1ccc(NNC(=O)C(=O)NN)cc1 [MSG-218],22
2,COc1cccc(NNC(=O)C(=O)NN)c1 [MSG-227],> 40

# Same assay, conditions: Clavispora lusitaniae; C. lusitaniae; 500 μg/disc
row,SMILES,zone of inhibition at 500 µg/disc [mm]
1,Cc1ccc(NNC(=O)C(=O)NN)cc1 [MSG-218],46
2,COc1cccc(NNC(=O)C(=O)NN)c1 [MSG-227],> 40

# System: A. niger
# Assay: as above
# Format: cell-based
# Details: Aspergillus niger; A. niger; 150 μg/disc
# Method: as §1, §2, §3
row,SMILES,zone of inhibition at 150 µg/disc [mm]
1,Cc1ccc(NNC(=O)C(=O)NN)cc1 [MSG-218],22
2,COc1cccc(NNC(=O)C(=O)NN)c1 [MSG-227],32

# Same assay, conditions: Aspergillus niger; A. niger; 500 μg/disc
row,SMILES,zone of inhibition at 500 µg/disc [mm]
1,Cc1ccc(NNC(=O)C(=O)NN)cc1 [MSG-218],30
2,COc1cccc(NNC(=O)C(=O)NN)c1 [MSG-227],> 40

# System: A. flavus
# Assay: as above
# Format: cell-based
# Details: Aspergillus flavus; A. flavus; 150 μg/disc
# Method: as §1, §2, §3
row,SMILES,zone of inhibition at 150 µg/disc [mm]
1,Cc1ccc(NNC(=O)C(=O)NN)cc1 [MSG-218],< 10
2,COc1cccc(NNC(=O)C(=O)NN)c1 [MSG-227],25

# Same assay, conditions: Aspergillus flavus; A. flavus; 500 μg/disc
row,SMILES,zone of inhibition at 500 µg/disc [mm]
1,Cc1ccc(NNC(=O)C(=O)NN)cc1 [MSG-218],< 10
2,COc1cccc(NNC(=O)C(=O)NN)c1 [MSG-227],> 40

# System: A. terreus
# Assay: as above
# Format: cell-based
# Details: Aspergillus terreus; A. terreus; 150 μg/disc
# Method: as §1, §2, §3
row,SMILES,zone of inhibition at 150 µg/disc [mm]
1,Cc1ccc(NNC(=O)C(=O)NN)cc1 [MSG-218],< 10
2,COc1cccc(NNC(=O)C(=O)NN)c1 [MSG-227],> 40

# Same assay, conditions: Aspergillus terreus; A. terreus; 500 μg/disc
row,SMILES,zone of inhibition at 500 µg/disc [mm]
1,Cc1ccc(NNC(=O)C(=O)NN)cc1 [MSG-218],10
2,COc1cccc(NNC(=O)C(=O)NN)c1 [MSG-227],> 40

# System: S. cerevisiae
# Assay: as above
# Format: cell-based
# Details: Saccharomyces cerevisiae; S. cerevisiae; 150 μg/disc
# Method: as §1, §2, §3
row,SMILES,zone of inhibition at 150 µg/disc [mm]
1,Cc1ccc(NNC(=O)C(=O)NN)cc1 [MSG-218],24
2,COc1cccc(NNC(=O)C(=O)NN)c1 [MSG-227],20

# Same assay, conditions: Saccharomyces cerevisiae; S. cerevisiae; 500 μg/disc
row,SMILES,zone of inhibition at 500 µg/disc [mm]
1,Cc1ccc(NNC(=O)C(=O)NN)cc1 [MSG-218],34
2,COc1cccc(NNC(=O)C(=O)NN)c1 [MSG-227],25

# System: A. fumigatus
# Assay: as above
# Format: cell-based
# Details: Aspergillus fumigatus; A. fumigatus; 150 μg/disc
# Method: as §1, §2, §3
row,SMILES,zone of inhibition at 150 µg/disc [mm]
1,Cc1ccc(NNC(=O)C(=O)NN)cc1 [MSG-218],< 10
2,COc1cccc(NNC(=O)C(=O)NN)c1 [MSG-227],11

# Same assay, conditions: Aspergillus fumigatus; A. fumigatus; 500 μg/disc
row,SMILES,zone of inhibition at 500 µg/disc [mm]
1,Cc1ccc(NNC(=O)C(=O)NN)cc1 [MSG-218],10
2,COc1cccc(NNC(=O)C(=O)NN)c1 [MSG-227],> 40

# System: C. guillermondii
# Assay: as above
# Format: cell-based
# Details: C. guillermondii; 150 μg/disc
# Method: as §1, §2, §3
row,SMILES,zone of inhibition at 150 µg/disc [mm]
1,Cc1ccc(NNC(=O)C(=O)NN)cc1 [MSG-218],22
2,COc1cccc(NNC(=O)C(=O)NN)c1 [MSG-227],> 40

# Same assay, conditions: C. guillermondii; 500 μg/disc
row,SMILES,zone of inhibition at 500 µg/disc [mm]
1,Cc1ccc(NNC(=O)C(=O)NN)cc1 [MSG-218],40
2,COc1cccc(NNC(=O)C(=O)NN)c1 [MSG-227],> 40

# System: C. tropicalis
# Assay: as above
# Format: cell-based
# Details: Candida tropicalis; C. tropicalis; 150 μg/disc
# Method: as §1, §2, §3
row,SMILES,zone of inhibition at 150 µg/disc [mm]
1,Cc1ccc(NNC(=O)C(=O)NN)cc1 [MSG-218],10
2,COc1cccc(NNC(=O)C(=O)NN)c1 [MSG-227],26

# Same assay, conditions: Candida tropicalis; C. tropicalis; 500 μg/disc
row,SMILES,zone of inhibition at 500 µg/disc [mm]
1,Cc1ccc(NNC(=O)C(=O)NN)cc1 [MSG-218],40
2,COc1cccc(NNC(=O)C(=O)NN)c1 [MSG-227],> 40

# System: C. albicans
# Assay: as above
# Format: cell-based
# Details: Candida albicans; C. albicans; 150 μg/disc
# Method: as §1, §2, §3
row,SMILES,zone of inhibition at 150 µg/disc [mm]
1,Cc1ccc(NNC(=O)C(=O)NN)cc1 [MSG-218],24
2,COc1cccc(NNC(=O)C(=O)NN)c1 [MSG-227],26

# Same assay, conditions: Candida albicans; C. albicans; 500 μg/disc
row,SMILES,zone of inhibition at 500 µg/disc [mm]
1,Cc1ccc(NNC(=O)C(=O)NN)cc1 [MSG-218],> 40
2,COc1cccc(NNC(=O)C(=O)NN)c1 [MSG-227],> 40

# System: C. parapsilosis
# Assay: as above
# Format: cell-based
# Details: Lodderomyces parapsilosis; C. parapsilosis; 150 μg/disc
# Method: as §1, §2, §3
row,SMILES,zone of inhibition at 150 µg/disc [mm]
1,Cc1ccc(NNC(=O)C(=O)NN)cc1 [MSG-218],25
2,COc1cccc(NNC(=O)C(=O)NN)c1 [MSG-227],31

# Same assay, conditions: Lodderomyces parapsilosis; C. parapsilosis; 500 μg/disc
row,SMILES,zone of inhibition at 500 µg/disc [mm]
1,Cc1ccc(NNC(=O)C(=O)NN)cc1 [MSG-218],36
2,COc1cccc(NNC(=O)C(=O)NN)c1 [MSG-227],> 40

# System: T. pulmonis
# Assay: Kirby-Bauer disk diffusion susceptibility test
# Format: cell-based
# Details: 300 μg/disc
# Method: (§4) Bacterial strains, from clinical origin, were supplied by the National Center for Microbiology, Institute of Health Carlos III (Majadahonda, Madrid). They are detailed in Table 1.
# (§5) Bacterial cells suspension in sterile saline was prepared from a culture of 24-72 h, depending on bacterial species, in Mueller-Hinton Agar with 5% sheep blood. Each suspension was adjusted to a fixed size inoculum of 1-5×10^8 CFU/ml with a spectrophotometer (Ferraro, MJ National Committee for Clinical Laboratory Standards. 2000).
# (§6) Kirby-Bauer disk diffusion susceptibility test protocol was utilized to determine the sensitivity or resistance of pathogenic bacteria against the compounds and others antibiotics. The absence of growth around the disks is an indirect measure of the ability of this compound to inhibit an organism (Kirby, W., et al., Antibiotics Annu. 1956-1957:892). After 18 to 72 hours of incubation at 37° C., with or without CO2, under aerobic or anaerobic conditions, depending on the bacterial species, halo of growth inhibition were obtained and evaluated.
# (§7) Interpretation of susceptibility and resistance was based on the presence or absence of a zone of inhibition surrounding the disk. Kirby-Bauer disk diffusion susceptibility test is a common method which uses antibiotic-impregnated wafers to test whether bacteria are affected by antibiotics. The size of the zone of inhibition depends on how effective the antibiotic is at stopping the growth of the bacterium. A stronger antibiotic will create a larger zone, because a lower concentration of the antibiotic is enough to stop growth.
# (§8) All compounds were tested at 300 μg/disc.
row,SMILES,Activity detected (mm)
1,Cc1ccc(NNC(=O)C(=O)NN)cc1 [MSG-218],33

# System: A. baumannii
# Assay: Kirby-Bauer disk diffusion susceptibility test
# Format: cell-based
# Details: 300 μg/disc
# Method: as §4, §5, §6, §7, §8
row,SMILES,Activity detected (mm)
1,Cc1ccc(NNC(=O)C(=O)NN)cc1 [MSG-218],15
